Reference: patent publication US20250262139A1, “POLYPEPTIDES AND METHODS FOR IMPROVING SKIN CONDITIONS” (INTERK PEPTIDE THERAPEUTICS LIMITED, priority 2020, published 2025)
Entries after “also recorded” stand apart in the source; their conditions may differ. Where no end group is shown, it is not given here. [ ]: non-standard residue; d: D form.

Legend:
[1] = tested on: ICR mice, punch skin wound; test: murine wound model, wound closure; assay type: in vivo; conditions: topical 10 μg per mouse daily for 10 consecutive days
Description: FIGS. 1 and 2 illustrate the effect of polypeptides IK34720 (SEQ ID NO: 3—RSKAKNPLYRRRRRRRRR) (FIG. 1) and the dextro-reverso sequence IK236770 (SEQ ID NO: 4—rrrrrrrrrylpnkaksr) (FIG. 2), on wound healing over 10 days in a murine wound model in accordance with the following protocol.
Three groups of 8 male ICR mice with a mean weight of 22 g (+2 g) were used in the present study. The animals were housed in individual cages during the study. Under isoflurane gas anaesthesia, the shoulder and back region of each animal was shaved and a sharp punch (ID 12 mm) was used to induce a wound by removing the skin, including panniculus carnosus and adherent tissues on Day 1.
Following induction of the wound the polypeptides IK34720 and IK236770 were topically administered to the site of the wound at a dosage of 10 μg per animal. […] An additional group which comprised the administration of Phosphate buffered Saline (PBS) at pH 7.4 was used as a negative control.
The wound healing was analysed on Days 5, 7, 9 and 11 by tracing the periphery of the wound onto clear plastic sheets with the wound area calculated by an Image analyzer ProPlus (Media Cybernetics, Version 4.5.0.29. The percentage closure of the wound (%) was calculated. Percentage closure of the wound was determined on 5, 7, 9 and 11. ANOVA and Dunnett's test were applied to test significant significance between the treated groups (peptide and positive control groups) and the negative control group at each time point of measurement. Differences were considered statistically significant at P<0.05, and are indicated by *.

primary keratinocytes = test: CPD detection by IHC in keratinocytes 3 h following UV-irradiation; assay type: cell-based; conditions: 5 μM after ssUV; fixed 3 h after UV
Procedure: An in vitro assay was conducted allowing for densitometry analysis of CPD detection by IHC in keratinocytes 3 h following UV-irradiation in accordance with the following protocol.
Keratinocytes were harvested and cultured as described above at Example 2. Samples were split into two groups, being UV irradiated (UVR) and non-UV irradiated (SHAM). UV-irradiation was performed by solar simulated UV-irradiation for cells, also as described above at Example 2. Irradiation solution was PBS containing 5 mM D-glucose. […]
Harvested keratinocytes were plated on poly-D-lysine coated coverslips in 96 well plates and irradiated (or sham treated) as described above in at Example 2 in PBS containing 5 mM D-glucose. Keratinocytes were fixed 3 h after UV-irradiation. Immunohistochemistry and image analysis were performed as described previously (Gordon-Thomson et al., Photochem Photobiol Sci, 2012, 11 (12): 1837-47; Gupta et al., vide supra, Rybchyn M S et al., J Invest Dermatol, 2018; 138 (5): 1146-1156). Thymine dimers were detected using the anti-thymine dimer antibody (Sigma-Aldrich, Missouri, USA) at 10 μg/mL, and quantified as an index of CPD, as previously described (Douki T and Cadet J, Biochemistry, 2001, 40 (8): 2495-501).
Following irradiation, keratinocytes were treated with either Calcitriol, vehicle control (Veh) or the polypeptide IK34720 (SEQ ID NO: 3; “IK”) IK14800; (RSKAKNPLYRRRRRRRRR), RSKAKNPLY (IK94000) and RRRRRRRRR (IK00900), at concentrations of 5 μM.

human skin explants = test: CPD formation in UV-irradiated human skin explants; assay type: cell-based; conditions: 3 hrs post irradiation/treatment; Calcitriol 1 nM; IK34720 50, 250 or 500 μM
Procedure: Human skin removed at elective surgery was cleaned, dissected and cut into pieces of approx. 5 mm×5 mm. Each piece was placed in a well of a 96 well plate, with individual plates prepared to assess the effects 3 hrs post treatment. All samples were performed in triplicate for each treatment. Skin was subjected to UV-radiation from solar-simulated UV source for 1.5 h (UVR), or non-irradiation (SHAM). Given that human skin is thicker than mouse skin, human skin explants were exposed to a radiation dose three times higher than that used for mouse skin, i.e., 20 J/cm2 versus 7 J/cm^2, respectively, and the output spectrum of the laboratory solar simulator has previously been reported (Rybchyn M S et al, J Invest Dermatol. 2018 May; 138 (5): 1146-1156) and treated immediately after with a vehicle control, Calcitriol (1 nM) or the polypeptide IK34720 (SEQ ID NO: 3) at concentrations of 50 μM, 250 μM or 500 μM.
Samples harvested at 3 hrs were fixed, section, stained and quantified as described in Example 5.

dermal fibroblasts = test: TBARS lipid peroxidation assay, UV-irradiated dermal fibroblasts; assay type: cell-based; conditions: IK-3 at the highest concentration (5 μM); 1,25D
Procedure: The ability of the polypeptide RSKAKNPLYRRRRRRRRR to alter UV-induced oxidative damage of cell-derived lipids was examined using the TBARS thiobarbituric acid-reactive substances (TBARS) lipid peroxidation assay.
After irradiation or sham-irradiation of dermal fibroblasts, supernatants (900 μL) were collected. In brief, 90 μL of butylated hydroxytoluene (2% w/w in ethanol) was added and samples kept frozen (−20° C.) until the TBARS assay. Petri dishes were washed twice with 1 mL of HBSS, cells scraped in 600 μL of water and 60 μL of 0.5% aqueous Triton X100 added to this solution, for protein determination carried out by the Lowry method (Lowry O H et al, J. Biol. Chem., 1951, 193:265-275). TBARS were fluorometrically assayed as described (Morlière P et al, Biochim. Biophys. Acta, 1991, 1084:261-268). Briefly, thawing samples were heated in the presence of thiobarbituric acid in acidic conditions, and TBARS extracted with 1-butanol and fluorometrically quantified (λexc=515 nm and Aem=550 nm). Tetraethoxypropane, which quantitatively yields the malondialdehyde-thiobarbituric acid adduct in the assay conditions, was used for calibration. TBARS values, expressed in malondialdehyde (MDA) equivalents, were normalized to the cell protein for each Petri dish. Each TBARS determination was performed in triplicate (e.g., with three Petri dishes per data point).

MMP1 = MMP1 immunohistochemical staining in UV-irradiated human skin explants; assay type: cell-based; conditions: 3 hrs post irradiation/treatment; Calcitriol 1 nM; IK34720 50, 250 or 500 μM
Procedure: Human skin (2×human explant tissues) removed at elective surgery was cleaned, dissected and cut into pieces of approx. 5 mm×5 mm. Each piece was placed in a well of a 96 well plate, with individual plates prepared to assess the effects 3 hrs post treatment. Skin was subjected to UV-radiation from solar-simulated UV source for 1.5 h (UVR), or non-irradiation (SHAM), and treated immediately after with a vehicle control, Calcitriol (1 nM) or the polypeptide IK34720 (SEQ ID NO: 3) at concentrations of 50 μM, 250 μM or 500 μM. In FIG. 17, IK50, IK250 and IK500 as μM concentrations refers to 15 μg, 75 μg and 150 μg of IK34720 per 120 μL culture medium/explant, respectively.
Samples harvested at 3 hrs were fixed, sectioned, immunohistochemically stained for MMP1 and quantified for MMP1 expression, by expressing epidermal area stained for MMP1 as a function of total epidermal area examined.

[2] = biological target: T1, polypeptide IK34720 (RSKAKNPLYRRRRRRRRR)
T1 chain: RSKAKNPLYRRRRRRRRR

**Q.** “rrrrrrrrrylpnkaksr ([dR][dR][dR][dR][dR][dR][dR][dR][dR][dY][dL][dP][dN][dK][dA][dK][dS][dR]) [IK236770]” was tested. Which “wound healing (wound closure % percentage)” value ([1]; day 5, vs negative control) did it give?
**A.** The value was “statistically significant increase in wound healing”.

**Q.** Which wound closure percentage ([1]; Day 5 to Day 11, vs negative control (PBS)) does the source give for `CCNC(=O)[C@H]1O[C@@H](n2cnc3c(N)nc(NCCc4ccc(CCC(=O)O)cc4)nc32)[C@H](O)[C@@H]1O` [CGS-21680, reference compound] here?
**A.** Its wound closure percentage is “increase wound healing”.

**Q.** What does the source list for RRRRRRRRR [IK00900]?
**A.** CPD levels compared to vehicle-treated UV-irradiated keratinocytes (primary keratinocytes): decrease CPD levels; also recorded: statistically significant (*p<0.05) reduction in CPD levels; reduction in CPD levels compared to Calcitriol (primary keratinocytes): comparable reduction in CPD levels to keratinocytes treated with Calcitriol

**Q.** With “RSKAKNPLY (not fully specified (some residues)) [IK94000]” as the molecule, how does the “CPD levels compared to vehicle-treated UV-irradiated keratinocytes” value (primary keratinocytes) read?
**A.** The value was “decrease CPD levels; also recorded: statistically significant (*p<0.05) reduction in CPD levels”.

**Q.** What about the “reduction in CPD levels compared to Calcitriol” value (primary keratinocytes) of the same molecule?
**A.** Its value is “comparable reduction in CPD levels to keratinocytes treated with Calcitriol”.

**Q.** With `C=C1/C(=C\C=C2/CCC[C@]3(C)[C@@H]([C@H](C)CCCC(C)(C)O)CC[C@@H]23)C[C@@H](O)C[C@@H]1O` [Calcitriol, 1,25-dihydroxyvitamin D3, reference compound] as the molecule, how does the “cells stained for CPDs” value (human skin explants) read?
**A.** Its value is “fewer stained cells”.

**Q.** What about the “significant difference in TRS (TBA reactive substances) between Sham and UV irradiation” value (dermal fibroblasts) of the same molecule?
**A.** Its value is “not seen”.

**Q.** What about the “cells staining for MMP-1” value (MMP1) of the same molecule?
**A.** Its value is “fewer stained cells”.

B1: Human rheumatoid synovial fibroblast MMP-1 proenzyme, activated with APMA (protein)
chain: FVLTEGNPRWEQTHLTYRIENYTPDLPRADVDHAIEKAFQLWSNVTPLTFTKVSEGQADIMISFVRGDHRDNSPFDGPGGNLAHAFQPGPGIGGDAHFDEDERWTNNFREYNLHRVAAHELGHSLGLSHSTDIGALMYPSYTFSGDVQLAQDDIDGIQAIYGRSQNPVQPIGPQTPKACDSKLTFDAITTIRGEVMFFKDRFYMRTNPFYPEVELNFISVFWPQLPNGLEAAYEFADRDEVRFFKGNKYWAVQGQNVLHGYPKDIYSSFGFPRTVKHIDAALSEENTGKTYFFVANKYWRYDEYKRSMDPGYPKMIAHDFPGIGHKVDAVFMKDGFFYFFHGTRQYKFDPKTKRILTLQKANSWFNCRKN
**Q.** B1 was tested. Which “MMP-1 enzyme activity in vitro (fluorimetric cleavage of Mca-Pro-Leu-Gly-Leu-Dap-Ala-Arg; peptide at 5, 10, 800 and 1000 uM pre-incubated with 8 nM activated enzyme)” value [2] did it give?
**A.** Its value is “inhibits MMP-1 activation in a dose dependent manner”.
